Like-named read-outs stand apart in the source and are kept apart here.
Assays:
MATE1 [1] = biological target: T1, MATE1 (Homo sapiens, UniProt Q96FL8); assay: Uptake ratio in MATE1-overexpressing HEK293 cells vs empty vector (2.5 μM, 1 min, HPLC-MS/MS); assay type: cell-based; design: key to MATE1 substrate*: 1 = substrate; 0 = no substrate; details: for MATE1 ratio in this study: Table S1; for MATE1: uptake ratio MATE1-overexpressing vs empty-vector HEK293 cells, mean; for MATE1 substrate*: Table S4
T1 sequence (Q96FL8 1-570): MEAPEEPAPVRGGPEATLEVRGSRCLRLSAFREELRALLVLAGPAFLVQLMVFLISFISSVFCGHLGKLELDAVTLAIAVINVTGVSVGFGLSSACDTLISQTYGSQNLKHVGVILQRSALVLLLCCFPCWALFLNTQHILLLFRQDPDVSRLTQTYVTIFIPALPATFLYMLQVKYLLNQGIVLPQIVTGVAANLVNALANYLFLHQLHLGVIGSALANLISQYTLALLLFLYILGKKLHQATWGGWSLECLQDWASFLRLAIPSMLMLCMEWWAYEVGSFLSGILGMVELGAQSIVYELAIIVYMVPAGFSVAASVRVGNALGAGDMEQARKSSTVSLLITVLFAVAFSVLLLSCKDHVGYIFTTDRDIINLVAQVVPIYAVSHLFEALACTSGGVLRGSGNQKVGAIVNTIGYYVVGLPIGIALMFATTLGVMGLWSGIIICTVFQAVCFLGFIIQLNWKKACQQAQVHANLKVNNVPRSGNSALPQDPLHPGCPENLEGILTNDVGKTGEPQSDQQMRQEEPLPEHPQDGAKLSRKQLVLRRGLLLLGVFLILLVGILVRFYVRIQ

MATE2K [2] = biological target: T2, MATE2K (Homo sapiens, UniProt Q86VL8); assay: Uptake ratio in MATE2K-overexpressing HEK293 cells vs empty vector (2.5 μM, 1 min, HPLC-MS/MS); assay type: cell-based; design: key to MATE2 substrate*: 1 = substrate; 0 = no substrate; details: for MATE2K ratio in this study: Table S1; for MATE2: uptake ratio MATE2K-overexpressing vs empty-vector HEK293 cells, mean; for MATE2 substrate*: Table S4
T2 sequence (Q86VL8 1-566 isoform Q86VL8-3): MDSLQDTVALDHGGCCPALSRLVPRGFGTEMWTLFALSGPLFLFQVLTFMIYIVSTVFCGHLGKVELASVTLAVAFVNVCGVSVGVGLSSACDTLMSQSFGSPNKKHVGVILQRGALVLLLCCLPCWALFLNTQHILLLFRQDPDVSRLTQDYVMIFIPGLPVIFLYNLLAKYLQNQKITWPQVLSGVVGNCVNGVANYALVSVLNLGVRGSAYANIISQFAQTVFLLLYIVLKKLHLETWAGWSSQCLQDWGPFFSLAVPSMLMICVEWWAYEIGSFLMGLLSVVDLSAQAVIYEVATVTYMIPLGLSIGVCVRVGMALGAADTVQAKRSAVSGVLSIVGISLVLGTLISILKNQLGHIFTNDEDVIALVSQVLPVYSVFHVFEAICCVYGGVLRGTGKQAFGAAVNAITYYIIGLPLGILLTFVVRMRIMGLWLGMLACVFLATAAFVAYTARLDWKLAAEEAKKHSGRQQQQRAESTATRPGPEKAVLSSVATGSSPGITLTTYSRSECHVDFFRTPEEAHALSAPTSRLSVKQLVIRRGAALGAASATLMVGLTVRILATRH

MATE1 [3] = biological target: T1, MATE1; details: for MATE1 Clint: human, pH 7.4
MATE1 [4] = biological target: T1, MATE1; assay: in vitro; details: other cell line, pH 7.4
MATE2K [5] = biological target: T2, MATE2K; assay: in vitro; details: other cell line, pH 7.4
MATE1 [6] = biological target: T1, MATE1; assay: Concentration-dependent uptake (Michaelis-Menten) via MATE1 in HEK293 cells; details: for Km: read-out: MATE1 KM
MATE2K [7] = biological target: T2, MATE2K; assay: Concentration-dependent uptake (Michaelis-Menten) via MATE2K in HEK293 cells; details: for Km: read-out: MATE2K KM
[8] = cited from earlier work
OCT1 = biological target: T3, OCT1 (Homo sapiens, UniProt O15245); assay: Uptake in OCT1-overexpressing HEK293 cells (substrate yes/no); assay type: cell-based; design: key: 1 = substrate; 0 = no substrate; details: Table S4
T3 sequence (O15245 1-554): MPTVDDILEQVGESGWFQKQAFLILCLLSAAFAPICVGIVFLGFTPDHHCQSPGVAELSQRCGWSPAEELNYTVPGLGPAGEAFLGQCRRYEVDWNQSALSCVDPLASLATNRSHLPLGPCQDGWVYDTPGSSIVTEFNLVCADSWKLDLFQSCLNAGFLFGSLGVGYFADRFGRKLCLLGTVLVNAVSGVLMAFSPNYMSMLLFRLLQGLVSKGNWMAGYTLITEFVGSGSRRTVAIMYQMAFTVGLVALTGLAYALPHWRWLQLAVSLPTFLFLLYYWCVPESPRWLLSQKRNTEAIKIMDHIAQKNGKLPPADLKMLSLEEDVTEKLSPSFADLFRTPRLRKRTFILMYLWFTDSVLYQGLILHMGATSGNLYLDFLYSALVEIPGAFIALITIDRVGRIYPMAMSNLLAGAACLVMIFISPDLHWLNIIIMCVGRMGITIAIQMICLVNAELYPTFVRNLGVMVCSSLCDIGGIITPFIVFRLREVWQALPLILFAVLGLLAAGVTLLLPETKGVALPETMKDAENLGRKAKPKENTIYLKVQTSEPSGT
Procedure: (§1) The cell lines were generated using the recombinant site-specific Flp-In^TM system as previously described. , All cell lines used in the transport experiments were cultured at 37 °C and 5% CO2 with Dulbecco’s Modified Eagle’s Medium (DMEM) supplemented with 10% (v/v) FBS and the antibiotics penicillin (100 U/mL) and streptomycin (100 μg/mL).

OCT2 = biological target: T4, OCT2 (Homo sapiens, UniProt O15244); assay: Uptake in OCT2-overexpressing HEK293 cells (substrate yes/no); assay type: cell-based; design: key: 1 = substrate; 0 = no substrate; details: Table S4
T4 sequence (O15244 1-555): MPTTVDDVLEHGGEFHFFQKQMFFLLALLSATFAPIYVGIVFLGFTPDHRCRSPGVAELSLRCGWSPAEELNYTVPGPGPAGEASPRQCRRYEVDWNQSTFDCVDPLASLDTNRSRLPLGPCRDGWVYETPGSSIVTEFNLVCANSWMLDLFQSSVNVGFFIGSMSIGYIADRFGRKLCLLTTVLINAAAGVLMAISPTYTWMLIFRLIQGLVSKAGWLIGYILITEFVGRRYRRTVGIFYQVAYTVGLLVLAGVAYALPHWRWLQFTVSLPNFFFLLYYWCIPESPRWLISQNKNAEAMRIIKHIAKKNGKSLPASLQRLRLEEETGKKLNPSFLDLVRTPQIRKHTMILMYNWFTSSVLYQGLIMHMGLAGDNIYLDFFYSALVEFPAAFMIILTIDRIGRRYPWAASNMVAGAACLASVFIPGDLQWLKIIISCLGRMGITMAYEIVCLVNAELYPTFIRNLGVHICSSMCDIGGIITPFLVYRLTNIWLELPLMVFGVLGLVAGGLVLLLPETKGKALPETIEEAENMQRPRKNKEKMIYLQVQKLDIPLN
Procedure: as §1

[9] = test system: MATE1, MATE2K, OCT1, OCT2; assay: Substrate specificity and overlap among the four transporters (ratio cutoff 2); assay type: cell-based, human; details: transport ratio cutoff of 2
hCMEC [10] = assay: TS DPH hCMEC (Table S2); assay type: cell-based, human; design: scale not given here; details: Table S2
hCMEC [11] = assay: TS MDAI hCMEC (Table S2); assay type: cell-based, human; design: scale not given here; details: Table S2
[12] = fold uptake over empty vector, 2.5 μM, 1 min

Compound | MATE2K Vmax (MATE2K [7]; HEK293, 1 min, net uptake) | Km (MATE2K [7]; HEK293, 1 min, net uptake) [µM] | MATE1 ratio (MATE1 [1]; [12]) | MATE1 (MATE1 [1]; 2.5 μM, 1 min) | MATE2 (MATE2K [2]; 2.5 μM, 1 min) | eliminated unchanged via the kidneys ([8]; human) | MATE1 Vmax (MATE1 [6]; HEK293, 1 min, net uptake) | MATE1 substrate* (MATE1 [1]) | MATE2 substrate* (MATE2K [2]) | OCT1 substrate* (OCT1) | MATE2K ratio (MATE2K [2]; [12]) | further results
c1c2c(cc3c1OCO3)-c1cc3ccc4c(c3c[n+]1CC2)OCO4 [Coptisine] | 246 pmol × mg protein^–1 × min^–1 | 1.88 | – | – | – | – | – | – | – | – | – | MATE1 ratio (MATE1 [1]): 9.90; MATE2K ratio (MATE2K [2]): 6.48; Km (MATE1 [3]): 20 µM; MATE1 Clint (MATE1 [3]): 145 μL × mg protein^–1 × min^–1; microsomal CLint (MATE1 [4]): 145 µL/min/mg; microsomal CLint (MATE2K [5]): 131 µL/min/mg; MATE1 Vmax (MATE1 [6]): 2901 pmol × mg protein^–1 × min^–1
Nc1ccn([C@H]2CC[C@@H](CO)O2)c(=O)n1 [Zalcitabine] | linear | – | above 2 | 12.98 | 1.22 | more than 70% | 10,171 pmol × mg protein^–1 × min^–1 | – | – | – | – | MATE1 ratio in this study (MATE1 [1]; 2.5 μM, 1 min): 12.98; MATE2K ratio in this study (MATE2K [2]; 2.5 μM, 1 min): 1.22; Km (MATE1 [6]; HEK293, 1 min, net uptake): 1560 µM
CN(C)CCc1c[nH]c2ccc(C[C@H]3COC(=O)N3)cc12 [Zolmitriptan] | – | – | – | 11.83 | 5.51 | – | 2992 pmol × mg protein^–1 × min^–1 | 1 | 1 | 1 | – | OCT2 substrate* (OCT2): 0
O=C1Cc2cc(CCN3CCN(c4nsc5ccccc45)CC3)c(Cl)cc2N1 [Ziprasidone] | – | – | – | 1.2 | 1.25 | – | – | 0 | 0 | 0 | – | OCT2 substrate* (OCT2): 0
CN(C)C(=O)Oc1cccc([N+](C)(C)C)c1 [Neostigmine] | 3139 pmol × mg protein^–1 × min^–1 | 385 | – | – | – | – | – | – | – | – | – | MATE1 ratio (MATE1 [1]): 32.31; MATE2K ratio (MATE2K [2]): 5.31; Substrate specificity among MATE1, MATE2K, OCT1, OCT2 [9]: All four transporters; Km (MATE1 [3]): 160 µM; MATE1 Clint (MATE1 [3]): 45.2 μL × mg protein^–1 × min^–1; MATE1 Vmax (MATE1 [6]): 7255 pmol × mg protein^–1 × min^–1
CN(C)CCOC1=Cc2ccccc2Sc2ccc(Cl)cc21 [Zotepin] | – | – | – | 0.51 | 1.34 | – | – | 0 | 0 | 0 | – | –
CCN1CCCC1CNC(=O)c1cc(S(N)(=O)=O)ccc1OC (stereo not drawn) [Sulpiride] | – | 22.8 | – | – | – | – | – | – | – | – | – | eliminated unchanged via the kidneys ([8]; in vivo): more than 70%; MATE1 Vmax (MATE1 [6]): 851 pmol × mg protein^–1 × min^–1; Km (MATE1 [6]; HEK293, 1 min, net uptake): 16 µM; MATE2K Vmax (MATE2K [7]): 1025 pmol × mg protein^–1 × min^–1
CC[N+](C)(C)c1cccc(O)c1 [Edrophonium] | – | – | 30.33 | – | – | – | – | – | – | – | 10.98 | MATE1 ratio (MATE1 [1]; fold uptake over empty vector, 2.5 μM, 1 min, listed as edrophonium): above 2; eliminated unchanged via the kidneys ([8]; in vivo): more than 70%
CNC(=C[N+](=O)[O-])NCCSCc1ccc(CN(C)C)o1 [Ranitidine] | – | – | 18.91 | 18.91 | 8.62 | more than 70% | – | – | – | – | 8.62 | MATE1 ratio (MATE1 [1]; fold uptake over empty vector, 2.5 μM, 1 min, listed as ranitidine): above 2; TS DPH hCMEC (hCMEC [10]): 1.26; TS MDAI hCMEC (hCMEC [11]): 1.24
CCN1CCCC1CNC(=O)c1cc(S(=O)(=O)CC)c(N)cc1OC (stereo not drawn) [Amisulpride] | 710 pmol × mg protein^–1 × min^–1 | 39.9 | 11.04 | – | – | more than 70% | 238 pmol × mg protein^–1 × min^–1 | – | – | – | 11.15 | MATE1 ratio (MATE1 [1]; fold uptake over empty vector, 2.5 μM, 1 min, listed as amisulpride): above 2; MATE1 (uptake ratio) (MATE1 [1]; mean ratio of uptake in MATE1-overexpressing HEK293 cells vs empty vector, 2.5 μM, 1 min): 11.04; MATE2 (uptake ratio) (MATE2K [2]; mean ratio of uptake in MATE2K-overexpressing HEK293 cells vs empty vector, 2.5 μM, 1 min): 11.15; TS DPH hCMEC (hCMEC [10]): 0.89; TS MDAI hCMEC (hCMEC [11]): 0.91; Km (MATE1 [6]; HEK293, 1 min, net uptake): 10.6 µM
CC(C)NCC(O)c1ccc(NS(C)(=O)=O)cc1 (stereo not drawn) [Sotalol] | – | – | 19.70 | 19.7 | 1.62 | more than 70% | – | – | – | – | 1.62 | MATE1 ratio (MATE1 [1]; fold uptake over empty vector, 2.5 μM, 1 min, listed as sotalol): above 2
N[C@@H](CC(=O)N1CCn2c(nnc2C(F)(F)F)C1)Cc1cc(F)c(F)cc1F [Sitagliptin] | – | – | 4.17 | 4.17 | 2.77 | more than 70% | – | – | – | – | 2.77 | MATE1 ratio (MATE1 [1]; fold uptake over empty vector, 2.5 μM, 1 min, listed as sitagliptin): above 2
C[C@H]1N=C(N(C)C)N=C(N)N1 [Imeglimin] | 2814 pmol × mg protein^–1 × min^–1 | 81.6 | 18.76 | – | – | more than 70% | 6242 pmol × mg protein^–1 × min^–1 | – | – | – | 4.59 | MATE1 ratio in this study (MATE1 [1]; 2.5 μM, 1 min): 18.76; MATE1 ratio (MATE1 [1]; fold uptake over empty vector, 2.5 μM, 1 min, listed as imeglimin): above 2; MATE2K ratio in this study (MATE2K [2]; 2.5 μM, 1 min): 4.59; Km (MATE1 [6]; HEK293, 1 min, net uptake): 58 µM
CC(C)NCC(O)COc1ccc(COCCOC(C)C)cc1 (stereo not drawn) [Bisoprolol] | – | – | – | – | – | 50% | – | – | – | – | – | TS DPH hCMEC (hCMEC [10]): 0.32; TS MDAI hCMEC (hCMEC [11]): 0.35
CN(C)CCc1c[nH]c2ccc(C[C@H]3COC(=O)N3)cc12 [Zolmitriptan (R), Zolmitriptan] | – | – | – | 12.88 | 6.48 | – | 2624 pmol × mg protein^–1 × min^–1 | 1 | 1 | 1 | – | OCT2 substrate* (OCT2): 1
CN(C)CCc1c[nH]c2ccc(C[C@H]3COC(=O)N3)cc12 [Zolmitriptan (S), Zolmitriptan] | 1662 pmol × mg protein^–1 × min^–1 | 94.5 | – | 13.34 | 5.38 | – | 2849 pmol × mg protein^–1 × min^–1 | 1 | 1 | 1 | – | OCT2 substrate* (OCT2): 0
